Experimental data taken from patent US20220184028A1, “TREATMENT OF AMYOTROPHIC LATERAL SCLEROSIS USING PKC ACTIVATORS” (Synaptogenix, Inc., priority 2020, published 2022).

Experiment: Blood-brain-barrier crossing, brain and plasma levels in mice
Type: in vivo
Conditions: intravenous
Protocol: Further evaluation may be performed on bryostatin or other PKC activating compound crossing the blood-brain-barrier (BBB) and the steady state levels of bryostatin or other PKC activating compound in the brain and plasma of mice.
In contrast, plasma concentrations of bryostatin or other PKC activating compound may be greater when the drug is administered as a single injection for three consecutive weeks. Blood plasma concentrations of bryostatin or other PKC activating compound may be less in mice receiving a 25 μg/m^2 dose as a “1 on/1 off” or a “2 on/1 off” administration. Without being bound to a specific theory, it may be hypothesized that the intermittent dosing regimen facilitates the transport of bryostatin or other PKC activating compound across the BBB.

## CCC/C=C/C=C/C(=O)O[C@H]1/C(=C/C(=O)OC)C[C@H]2C[C@H]([C@@H](C)O)OC(=O)C[C@H](O)C[C@@H]3C[C@H](OC(C)=O)C(C)(C)[C@](O)(C[C@@H]4C/C(=C/C(=O)OC)C[C@H](/C=C/C(C)(C)[C@]1(O)O2)O4)O3 [Bryostatin-1]
  crossing the blood-brain-barrier: crosses the BBB
